Measured values: patent US6355799B1, “Substituted benzene compounds, process for their preparation, and herbicidal and defoliant compositions containing them” (ISK Americas Incorporated, priority 1997, dated 2002)

Assays:
Format in all cases: in vivo
[1] = test system: sicklepod (Cassia obtusifolia, CASOB); assay: Pre-emerge test, greenhouse herbicide activity screening; settings: for Pre-emerge Herbicidal Activity, phytotoxicity rating (0-100), CASOB: rated 14 days after application, 0 = no damage, 100 = complete death; for Pre-emerge herbicidal activity, phytotoxicity rating CASOB: rating scale 0-100, 14 days after application
In short: (§1)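 Applied at 15–1000 g ai/ha from acetone in 187 l/ha spray volume. Post-emergence applications included 0.25% v/v non-ionic surfactant and reached plants sown 8–21 days before. Pre-emergence applications were incorporated by surface watering. Efficacy or crop damage was rated on a 0–100 scale after 14 days.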

[2] = test system: velvetleaf (Abutilon theophrasti, ABUTH); assay: as above; settings: for Pre-emerge Herbicidal Activity, phytotoxicity rating (0-100), ABUTH: rated 14 days after application, 0 = no damage, 100 = complete death; for Pre-emerge herbicidal activity, phytotoxicity rating ABUTH: rating scale 0-100, 14 days after application
In short: as §1

[3] = test system: johnsongrass (Sorghum halepense, SORHA); assay: as above; settings: for Pre-emerge Herbicidal Activity, phytotoxicity rating (0-100), SORHA: rated 14 days after application, 0 = no damage, 100 = complete death; for Pre-emerge herbicidal activity, phytotoxicity rating SORHA: rating scale 0-100, 14 days after application
In short: as §1

[4] = test system: ivyleaf morningglory (Ipomoea hederacea, IPOHE); assay: as above; settings: for Pre-emerge Herbicidal Activity, phytotoxicity rating (0-100), IPOHE: rated 14 days after application, 0 = no damage, 100 = complete death; for Pre-emerge herbicidal activity, phytotoxicity rating IPOHE: rating scale 0-100, 14 days after application
In short: as §1

[5] = test system: common ragweed (Ambrosia artemisizfolia L., AMBEL); assay: as above; settings: rated 14 days after application, 0 = no damage, 100 = complete death
In short: as §1

[6] = test system: lambsquarters (Chenopodium album, CHEAL); assay: as above; settings: for Pre-emerge Herbicidal Activity, phytotoxicity rating (0-100), CHEAL: rated 14 days after application, 0 = no damage, 100 = complete death; for Pre-emerge herbicidal activity, phytotoxicity rating CHEAL: rating scale 0-100, 14 days after application
In short: as §1

[7] = test system: green foxtail (Setaria viridis, SETVI); assay: as above; settings: for Pre-emerge Herbicidal Activity, phytotoxicity rating (0-100), SETVI: rated 14 days after application, 0 = no damage, 100 = complete death; for Pre-emerge herbicidal activity, phytotoxicity rating SETVI: rating scale 0-100, 14 days after application
In short: as §1

[8] = test system: large crabgrass (Digitaria sanguinalis, DIGSA); assay: as above; settings: for Pre-emerge Herbicidal Activity, phytotoxicity rating (0-100), DIGSA: rated 14 days after application, 0 = no damage, 100 = complete death; for Pre-emerge herbicidal activity, phytotoxicity rating DIGSA: rating scale 0-100, 14 days after application
In short: as §1

[9] = test system: barnyardgrass (Echinochloa crus-galli, ECHCG); assay: as above; settings: for Pre-emerge Herbicidal Activity, phytotoxicity rating (0-100), ECHCG: rated 14 days after application, 0 = no damage, 100 = complete death; for Pre-emerge herbicidal activity, phytotoxicity rating ECHCG: rating scale 0-100, 14 days after application
In short: as §1

[10] = test system: field corn (Zea mays L., var. Dekalb 535, CORN); assay: Pre-emerge test, crop safety; settings: for Pre-emerge phytotoxicity rating (0-100), crop damage, CORN: rated 14 days after application, 0 = no damage, 100 = complete death; for Pre-emerge phytotoxicity rating, crop damage CORN: rating scale 0-100, 14 days after application
In short: (§2)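 Visual ratings on a 0-100 scale (0 no damage, 100 all plants dead) were taken at 14 days after treatment. Rates of 15-1000 g ai/ha in acetone, 187 l/ha, were sprayed onto soil one day after planting (pre-emerge) or onto 2-3 leaf plants with 0.25% v/v surfactant (post-emerge).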

[11] = test system: upland rice (Oryza sp., var. Tebonnet, RICE); assay: Pre-emerge test, crop safety; settings: for Pre-emerge phytotoxicity rating (0-100), crop damage, RICE: rated 14 days after application, 0 = no damage, 100 = complete death; for Pre-emerge phytotoxicity rating, crop damage RICE: rating scale 0-100, 14 days after application
In short: as §2

[12] = test system: redroot pigweed (Amaranthus retroflexus, AMARE); assay: Pre-emerge test, greenhouse herbicide activity screening; settings: for Pre-emerge Herbicidal Activity, phytotoxicity rating (0-100), AMARE: rated 14 days after application, 0 = no damage, 100 = complete death; for Pre-emerge herbicidal activity, phytotoxicity rating AMARE: rating scale 0-100, 14 days after application
In short: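 Herbicidal damage is scored 0 (none) to 100 (complete plant death) two weeks after a simulated field spray. Rates span 15–1000 g ai/ha, delivered in acetone at 187 l/ha. For post-emergence treatments, plants have 2–3 leaves and the spray carries 0.25% v/v non-ionic surfactant.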

[13] = test system: sicklepod (Cassia obtusifolia, CASOB); assay: Post-emerge test, greenhouse herbicide activity screening; settings: rating scale 0-100 (0 no damage, 100 complete death), 14 days after application
In short: (§3)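 Each test used a mechanized track sprayer delivering 187 l/ha of acetone solution at 15–1000 g ai/ha. Post-emerge foliage at 2–3 leaves was treated with added 0.25% v/v non-ionic surfactant and bottom-watered only. Injury was assessed on day 14, where 100 means total kill.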

[14] = test system: velvetleaf (Abutilon theophrasti, ABUTH); assay: as above; settings: rating scale 0-100 (0 no damage, 100 complete death), 14 days after application
In short: as §3

[15] = test system: johnsongrass (Sorghum halepense, SORHA); assay: as above; settings: rating scale 0-100 (0 no damage, 100 complete death), 14 days after application
In short: as §3

[16] = test system: ivyleaf morningglory (Ipomoea hederacea, IPOHE); assay: as above; settings: rating scale 0-100 (0 no damage, 100 complete death), 14 days after application
In short: as §3

[17] = test system: common ragweed (Ambrosia artemisizfolia L., AMBEL); assay: as above; settings: rating scale 0-100 (0 no damage, 100 complete death), 14 days after application
In short: as §3

[18] = test system: lambsquarters (Chenopodium album, CHEAL); assay: as above; settings: rating scale 0-100 (0 no damage, 100 complete death), 14 days after application
In short: as §3

[19] = test system: green foxtail (Setaria viridis, SETVI); assay: as above; settings: rating scale 0-100 (0 no damage, 100 complete death), 14 days after application
In short: as §3

[20] = test system: redroot pigweed (Amaranthus retroflexus, AMARE); assay: as above; settings: rating scale 0-100 (0 no damage, 100 complete death), 14 days after application
In short: as §3

[21] = test system: large crabgrass (Digitaria sanguinalis, DIGSA); assay: as above; settings: rating scale 0-100 (0 no damage, 100 complete death), 14 days after application
In short: as §3

[22] = test system: barnyardgrass (Echinochloa crus-galli, ECHCG); assay: as above; settings: rating scale 0-100 (0 no damage, 100 complete death), 14 days after application
In short: as §3

[23] = test system: field corn (Zea mays L., var. Dekalb 535, CORN); assay: Post-emerge test, crop safety; settings: rating scale 0-100 (0 no damage, 100 complete death), 14 days after application
In short: as §1

[24] = test system: upland rice (Oryza sp., var. Tebonnet, RICE); assay: Post-emerge test, crop safety; settings: rating scale 0-100 (0 no damage, 100 complete death), 14 days after application
In short: as §1

CCOc1ccc(C(=O)Nc2c(OC)c(Cl)cc(F)c2-n2c(=O)cc(C(F)(F)F)n(C)c2=O)cc1 [2-64]
Pre-emerge Herbicidal Activity, phytotoxicity rating (0-100), CASOB ([1]; 63 g ai/ha): 0
Pre-emerge Herbicidal Activity, phytotoxicity rating (0-100), CASOB ([1]; 250 g ai/ha): 100
Pre-emerge Herbicidal Activity, phytotoxicity rating (0-100), ABUTH ([2]; 63 g ai/ha): 100
Pre-emerge Herbicidal Activity, phytotoxicity rating (0-100), ABUTH ([2]; 250 g ai/ha): 100
Pre-emerge Herbicidal Activity, phytotoxicity rating (0-100), SORHA ([3]; 63 g ai/ha): 10
Pre-emerge Herbicidal Activity, phytotoxicity rating (0-100), SORHA ([3]; 250 g ai/ha): 50
Pre-emerge Herbicidal Activity, phytotoxicity rating (0-100), IPOHE ([4]; 63 g ai/ha): 0
Pre-emerge Herbicidal Activity, phytotoxicity rating (0-100), IPOHE ([4]; 250 g ai/ha): 40
Pre-emerge Herbicidal Activity, phytotoxicity rating (0-100), AMBEL ([5]; 63 g ai/ha): 0
Pre-emerge Herbicidal Activity, phytotoxicity rating (0-100), AMBEL ([5]; 250 g ai/ha): 60
Pre-emerge Herbicidal Activity, phytotoxicity rating (0-100), CHEAL ([6]; 63 g ai/ha): 90
Pre-emerge Herbicidal Activity, phytotoxicity rating (0-100), CHEAL ([6]; 250 g ai/ha): 100
Pre-emerge Herbicidal Activity, phytotoxicity rating (0-100), SETVI ([7]; 63 g ai/ha): 100
Pre-emerge Herbicidal Activity, phytotoxicity rating (0-100), SETVI ([7]; 250 g ai/ha): 100
Pre-emerge Herbicidal Activity, phytotoxicity rating (0-100), DIGSA ([8]; 63 g ai/ha): 40
Pre-emerge Herbicidal Activity, phytotoxicity rating (0-100), DIGSA ([8]; 250 g ai/ha): 70
Pre-emerge Herbicidal Activity, phytotoxicity rating (0-100), ECHCG ([9]; 63 g ai/ha): 0
Pre-emerge Herbicidal Activity, phytotoxicity rating (0-100), ECHCG ([9]; 250 g ai/ha): 60
Pre-emerge phytotoxicity rating (0-100), crop damage, CORN ([10]; 63 g ai/ha): 0
Pre-emerge phytotoxicity rating (0-100), crop damage, CORN ([10]; 250 g ai/ha): 35
Pre-emerge phytotoxicity rating (0-100), crop damage, RICE ([11]; 63 g ai/ha): 10
Pre-emerge phytotoxicity rating (0-100), crop damage, RICE ([11]; 250 g ai/ha): 60
Pre-emerge Herbicidal Activity, phytotoxicity rating (0-100), AMARE ([12]; 63 g ai/ha): 90
Pre-emerge Herbicidal Activity, phytotoxicity rating (0-100), AMARE ([12]; 250 g ai/ha): 100

CCOCCOC(=O)C(Cl)Cc1c(OC)c(Cl)cc(F)c1-n1c(=O)cc(C(F)(F)F)n(C)c1=O (stereo not shown) [14-26]
Post-emerge Herbicidal Activity, phytotoxicity rating CASOB ([13]; Rate 63 g ai/ha): 50
Post-emerge Herbicidal Activity, phytotoxicity rating CASOB ([13]; Rate 250 g ai/ha): 90
Post-emerge Herbicidal Activity, phytotoxicity rating ABUTH ([14]; Rate 63 g ai/ha): 70
Post-emerge Herbicidal Activity, phytotoxicity rating ABUTH ([14]; Rate 250 g ai/ha): 100
Post-emerge Herbicidal Activity, phytotoxicity rating SORHA ([15]; Rate 63 g ai/ha): 30
Post-emerge Herbicidal Activity, phytotoxicity rating SORHA ([15]; Rate 250 g ai/ha): 70
Post-emerge Herbicidal Activity, phytotoxicity rating IPOHE ([16]; Rate 63 g ai/ha): 20
Post-emerge Herbicidal Activity, phytotoxicity rating IPOHE ([16]; Rate 250 g ai/ha): 100
Post-emerge Herbicidal Activity, phytotoxicity rating AMBEL ([17]; Rate 63 g ai/ha): 100
Post-emerge Herbicidal Activity, phytotoxicity rating AMBEL ([17]; Rate 250 g ai/ha): 100
Post-emerge Herbicidal Activity, phytotoxicity rating CHEAL ([18]; Rate 63 g ai/ha): 60
Post-emerge Herbicidal Activity, phytotoxicity rating CHEAL ([18]; Rate 250 g ai/ha): 100
Post-emerge Herbicidal Activity, phytotoxicity rating SETVI ([19]; Rate 63 g ai/ha): 0
Post-emerge Herbicidal Activity, phytotoxicity rating SETVI ([19]; Rate 250 g ai/ha): 0
Post-emerge Herbicidal Activity, phytotoxicity rating AMARE ([20]; Rate 63 g ai/ha): 90
Post-emerge Herbicidal Activity, phytotoxicity rating AMARE ([20]; Rate 250 g ai/ha): 100
Post-emerge Herbicidal Activity, phytotoxicity rating DIGSA ([21]; Rate 63 g ai/ha): 100
Post-emerge Herbicidal Activity, phytotoxicity rating DIGSA ([21]; Rate 250 g ai/ha): 100
Post-emerge Herbicidal Activity, phytotoxicity rating ECHCG ([22]; Rate 63 g ai/ha): 100
Post-emerge Herbicidal Activity, phytotoxicity rating ECHCG ([22]; Rate 250 g ai/ha): 100
Pre-emerge herbicidal activity, phytotoxicity rating CASOB ([1]; 63 g ai/ha): 0
Pre-emerge herbicidal activity, phytotoxicity rating CASOB ([1]; 250 g ai/ha): 20
Pre-emerge herbicidal activity, phytotoxicity rating ABUTH ([2]; 63 g ai/ha): 80
Pre-emerge herbicidal activity, phytotoxicity rating ABUTH ([2]; 250 g ai/ha): 100
Pre-emerge herbicidal activity, phytotoxicity rating SORHA ([3]; 63 g ai/ha): 0
Pre-emerge herbicidal activity, phytotoxicity rating SORHA ([3]; 250 g ai/ha): 70
Pre-emerge herbicidal activity, phytotoxicity rating IPOHE ([4]; 63 g ai/ha): 0
Pre-emerge herbicidal activity, phytotoxicity rating IPOHE ([4]; 250 g ai/ha): 0
Pre-emerge herbicidal activity, phytotoxicity rating CHEAL ([6]; 63 g ai/ha): 70
Pre-emerge herbicidal activity, phytotoxicity rating CHEAL ([6]; 250 g ai/ha): 100
Pre-emerge herbicidal activity, phytotoxicity rating SETVI ([7]; 63 g ai/ha): 0
Pre-emerge herbicidal activity, phytotoxicity rating SETVI ([7]; 250 g ai/ha): 99
Pre-emerge herbicidal activity, phytotoxicity rating DIGSA ([8]; 63 g ai/ha): 50
Pre-emerge herbicidal activity, phytotoxicity rating DIGSA ([8]; 250 g ai/ha): 95
Pre-emerge herbicidal activity, phytotoxicity rating ECHCG ([9]; 63 g ai/ha): 0
Pre-emerge herbicidal activity, phytotoxicity rating ECHCG ([9]; 250 g ai/ha): 95
Pre-emerge phytotoxicity rating, crop damage CORN ([10]; 63 g ai/ha): 0
Pre-emerge phytotoxicity rating, crop damage CORN ([10]; 250 g ai/ha): 50
Pre-emerge phytotoxicity rating, crop damage RICE ([11]; 63 g ai/ha): 0
Pre-emerge phytotoxicity rating, crop damage RICE ([11]; 250 g ai/ha): 80
Post-emerge phytotoxicity rating CORN (crop damage) ([23]; Rate 63 g ai/ha): 40
Post-emerge phytotoxicity rating CORN (crop damage) ([23]; Rate 250 g ai/ha): 100
Post-emerge phytotoxicity rating RICE (crop damage) ([24]; Rate 63 g ai/ha): 10
Post-emerge phytotoxicity rating RICE (crop damage) ([24]; Rate 250 g ai/ha): 10
Pre-emerge herbicidal activity, phytotoxicity rating AMARE ([12]; 63 g ai/ha): 100
Pre-emerge herbicidal activity, phytotoxicity rating AMARE ([12]; 250 g ai/ha): 100
